Key:
[1] = xn = mol fraction of the nth substance listed; details: 100 kPa, Liquid; for speed of sound: Frequency=3 MHz, Single path-length method; for mass density: Vibrating tube method
[2] = refractive index (Na D-line) (dimensionless); xn = mol fraction of the nth substance listed; details: 100 kPa, Liquid, Standard Abbe refractometry

CC(=O)CC(C)C [4-methylpentan-2-one] + CC#N
Details	mass density, 293.15 K [kg/m3]	mass density, 303.15 K [kg/m3]	mass density, 313.15 K [kg/m3]	refractive index, 293.15 K	refractive index, 303.15 K	refractive index, 313.15 K	speed of sound, 293.15 K [m/s]	speed of sound, 303.15 K [m/s]	speed of sound, 313.15 K [m/s]
[1], x1 = 0.102	786	776	765	–	–	–	1280.4	1239.9	1199.1
[1], x1 = 0.1961	790	779	769	–	–	–	1267.6	1226.3	1185.4
[1], x1 = 0.3082	792	782	772	–	–	–	1255.2	1213.5	1172.5
[1], x1 = 0.4019	794	784	774	–	–	–	1245.9	1204.6	1163.8
[1], x1 = 0.5188	796	787	777	–	–	–	1237.4	1195.8	1155
[1], x1 = 0.6001	797	788	778	–	–	–	1231.4	1190.3	1149.7
[1], x1 = 0.7014	798	789	779	–	–	–	1225.4	1184.5	1144
[1], x1 = 0.8008	799	790	780	–	–	–	1220.8	1179.6	1139.3
[1], x1 = 0.8801	800	791	781	–	–	–	1216.6	1175.9	1135.7
[1], x1 = 1	801	792	782	–	–	–	1212.3	1171.4	1131.4
[2], x1 = 0.102	–	–	–	1.355	1.35	1.345	–	–	–
[2], x1 = 0.1961	–	–	–	1.363	1.358	1.353	–	–	–
[2], x1 = 0.3082	–	–	–	1.371	1.366	1.361	–	–	–
[2], x1 = 0.4019	–	–	–	1.376	1.371	1.367	–	–	–
[2], x1 = 0.5188	–	–	–	1.381	1.377	1.372	–	–	–
[2], x1 = 0.6001	–	–	–	1.385	1.38	1.375	–	–	–
[2], x1 = 0.7014	–	–	–	1.388	1.384	1.379	–	–	–
[2], x1 = 0.8008	–	–	–	1.391	1.387	1.382	–	–	–
[2], x1 = 0.8801	–	–	–	1.393	1.389	1.384	–	–	–
[2], x1 = 1	–	–	–	1.396	1.391	1.387	–	–	–

CC(=O)CC(C)C [4-methylpentan-2-one] + C1CCCCC1
Details	mass density, 293.15 K [kg/m3]	mass density, 303.15 K [kg/m3]	mass density, 313.15 K [kg/m3]	refractive index, 293.15 K	refractive index, 303.15 K	refractive index, 313.15 K	speed of sound, 293.15 K [m/s]	speed of sound, 303.15 K [m/s]	speed of sound, 313.15 K [m/s]
[1], x1 = 0.0978	778	769	759	–	–	–	1260.7	1212.6	1165.6
[1], x1 = 0.1984	780	770	760	–	–	–	1246.9	1200	1154
[1], x1 = 0.3014	781	772	762	–	–	–	1236.2	1190.3	1145.3
[1], x1 = 0.4007	783	774	764	–	–	–	1228.8	1183.5	1139.2
[1], x1 = 0.5023	786	776	767	–	–	–	1222	1178	1134.6
[1], x1 = 0.6028	788	779	770	–	–	–	1217.4	1174.2	1131.6
[1], x1 = 0.7038	791	782	773	–	–	–	1214.2	1171.8	1129.9
[1], x1 = 0.8062	794	785	776	–	–	–	1212.1	1170.4	1129.2
[1], x1 = 0.9004	797	788	779	–	–	–	1211.3	1170.2	1129.6
[1], x1 = 1	801	792	782	–	–	–	1212.3	1171.4	1131.4
[2], x1 = 0.0978	–	–	–	1.421	1.416	1.411	–	–	–
[2], x1 = 0.1984	–	–	–	1.417	1.412	1.406	–	–	–
[2], x1 = 0.3014	–	–	–	1.413	1.408	1.403	–	–	–
[2], x1 = 0.4007	–	–	–	1.41	1.405	1.4	–	–	–
[2], x1 = 0.5023	–	–	–	1.407	1.402	1.397	–	–	–
[2], x1 = 0.6028	–	–	–	1.404	1.399	1.394	–	–	–
[2], x1 = 0.7038	–	–	–	1.402	1.397	1.392	–	–	–
[2], x1 = 0.8062	–	–	–	1.399	1.395	1.39	–	–	–
[2], x1 = 0.9004	–	–	–	1.398	1.393	1.388	–	–	–
[2], x1 = 1	–	–	–	1.396	1.391	1.387	–	–	–

CC(=O)CC(C)C [4-methylpentan-2-one] + C[S+](C)[O-]
Details	mass density, 293.15 K [kg/m3]	mass density, 303.15 K [kg/m3]	mass density, 313.15 K [kg/m3]	refractive index, 293.15 K	refractive index, 303.15 K	refractive index, 313.15 K	speed of sound, 293.15 K [m/s]	speed of sound, 303.15 K [m/s]	speed of sound, 313.15 K [m/s]
[1], x1 = 0.1002	1052	1043	1033	–	–	–	1453.8	1418.9	1384.7
[1], x1 = 0.2004	1010	1001	991	–	–	–	1409.2	1373.8	1339.2
[1], x1 = 0.3004	973	964	954	–	–	–	1371.9	1336	1300.8
[1], x1 = 0.4007	940	931	921	–	–	–	1338.7	1302.9	1267.1
[1], x1 = 0.4982	912	902	893	–	–	–	1311.8	1275.3	1238.9
[1], x1 = 0.5999	885	875	866	–	–	–	1287.1	1249.8	1212.7
[1], x1 = 0.6992	861	851	842	–	–	–	1266.1	1227.9	1190
[1], x1 = 0.7995	839	830	820	–	–	–	1246.5	1207.5	1168.9
[1], x1 = 0.8981	819	810	801	–	–	–	1229.3	1189.2	1149.9
[1], x1 = 1	801	792	782	–	–	–	1212.3	1171.4	1131.4
[2], x1 = 0.1002	–	–	–	1.466	1.462	1.458	–	–	–
[2], x1 = 0.2004	–	–	–	1.455	1.451	1.446	–	–	–
[2], x1 = 0.3004	–	–	–	1.445	1.441	1.436	–	–	–
[2], x1 = 0.4007	–	–	–	1.436	1.432	1.427	–	–	–
[2], x1 = 0.4982	–	–	–	1.428	1.423	1.419	–	–	–
[2], x1 = 0.5999	–	–	–	1.42	1.416	1.411	–	–	–
[2], x1 = 0.6992	–	–	–	1.413	1.409	1.404	–	–	–
[2], x1 = 0.7995	–	–	–	1.407	1.402	1.398	–	–	–
[2], x1 = 0.8981	–	–	–	1.401	1.397	1.392	–	–	–
[2], x1 = 1	–	–	–	1.396	1.391	1.387	–	–	–

CC(=O)CC(C)C [4-methylpentan-2-one] + CC(C)=O
Details	mass density, 293.15 K [kg/m3]	mass density, 303.15 K [kg/m3]	mass density, 313.15 K [kg/m3]	refractive index, 293.15 K	refractive index, 303.15 K	refractive index, 313.15 K	speed of sound, 293.15 K [m/s]	speed of sound, 303.15 K [m/s]	speed of sound, 313.15 K [m/s]
[1], x1 = 0.1004	791	780	769	–	–	–	1185.7	1140.9	1096.8
[1], x1 = 0.1992	793	782	771	–	–	–	1186.8	1143	1099.4
[1], x1 = 0.3012	794	783	773	–	–	–	1189.2	1145.9	1102.9
[1], x1 = 0.396	795	785	774	–	–	–	1191.8	1149	1106.4
[1], x1 = 0.5005	796	786	776	–	–	–	1194.8	1152.4	1110.4
[1], x1 = 0.6912	798	788	779	–	–	–	1201.1	1159.5	1118.3
[1], x1 = 0.7996	799	790	780	–	–	–	1205.2	1163.6	1122.9
[1], x1 = 0.8992	799	791	781	–	–	–	1208	1167.2	1126.9
[1], x1 = 1	800	792	782	–	–	–	1212.3	1171.4	1131.4
[2], x1 = 0.1004	–	–	–	1.365	1.359	1.354	–	–	–
[2], x1 = 0.1992	–	–	–	1.37	1.364	1.359	–	–	–
[2], x1 = 0.3012	–	–	–	1.374	1.369	1.365	–	–	–
[2], x1 = 0.396	–	–	–	1.378	1.373	1.368	–	–	–
[2], x1 = 0.5005	–	–	–	1.382	1.377	1.372	–	–	–
[2], x1 = 0.6912	–	–	–	1.388	1.383	1.379	–	–	–
[2], x1 = 0.7996	–	–	–	1.391	1.386	1.382	–	–	–
[2], x1 = 0.8992	–	–	–	1.394	1.389	1.384	–	–	–
[2], x1 = 1	–	–	–	1.396	1.391	1.387	–	–	–
